The assay deals with beige adipocytes. As to the kind of experiment: Lipolysis validation assays of primary hits at three concentrations. The assay is classed as cell-based, human. Details: % of Control (1) / % of Control (2) / % of Control (3) / % of Control (4): unit of the concentration uncertain. The following applies: for activity at 2.2 µM / activity at 6.7 µM / activity at 20 µM / activity at 2200 µM: Homo sapiens, Adipocyte, 24 h; for activity at 2.2 µM: Conc. 2.2 µM; for activity at 6.7 µM: Conc. 6.7 µM; for activity at 20 µM: Conc. 20 µM; for activity at 2200 µM: Conc. 2.2 mM. On the procedure:
ADSCs were seeded at 5000 cell/cm^2 in 12-well plates, grown for 5 days and then induced to differentiate into GC for 20 days. Prior to the assay, cells were washed in DPBS twice and then incubated with DMEM with 2% fatty-acid free BSA (Santa Crus, sc-500949) and Triascin C (5 μM). Cells were treated with forskolin (20 μM) for indicated time periods and supernatant samples were collected. Lipolysis assay was performed with free glycerol reagent (Sigma, F6428-40ML), according to manufacturer instructions.
Lipolysis assays were performed after 24 hours of drug treatment by measuring free glycerol released in the 384-well format, using the procedure described above. Absorbance for each compound was normalized to untreated control samples for each plate and calculated as a percent of the control. Cut-offs for “activating” and “inhibiting” compounds were set at 2-fold. Validation assays were performed for select compounds at a range of concentration doses.
Next, lipolysis assays were performed for all 111 compounds identified in the primary screen at three different concentrations, of which twenty-four were selected for further analysis based on their newness and/or reproducibility.

Structures can show the parent of a compound that is named as a salt. Where two headings read alike, the source gives them in different places.

As to `CC(=O)Nc1ccccc1` [Acetanilide], under “read-out: % of Control (2)”, the activity at 2.2 µM turned out to be 377%, the activity at 6.7 µM stood at 332% and the activity at 20 µM is 295%. Moreover, where the note is “read-out: % of Control (4)”, the activity at 2.2 µM was determined as 119%, the activity at 6.7 µM was 249% and the activity at 20 µM came to 258%. For the same compound, for the setting “read-out: % of Control (1)”, the activity at 6.7 µM was determined as 252%, the activity at 20 µM came out at 298% and the activity at 2200 µM is 317%. For the same compound, under “read-out: % of Control (3)”, the activity at 6.7 µM came out at 246%, the activity at 20 µM amounted to 253% and the activity at 2200 µM came out at 251%.

Consider `CCC(NC(C)C)C(O)c1ccc(O)c(O)c1` (stereo not drawn) [Isoetharine Mesylate], for which, under “read-out: % of Control (2)”, the activity at 2.2 µM is 307%, the activity at 6.7 µM stood at 301% and the activity at 20 µM stood at 304%. For the setting “read-out: % of Control (4)”, the activity at 2.2 µM is 106%, the activity at 6.7 µM was 247% and the activity at 20 µM worked out at 260%. For the same compound, for the setting “read-out: % of Control (1)”, the activity at 6.7 µM turned out to be 373%, the activity at 20 µM worked out at 417% and the activity at 2200 µM was found to be 294%. Further, where the note is “read-out: % of Control (3)”, the activity at 6.7 µM is 339%, the activity at 20 µM was 204% and the activity at 2200 µM was found to be 258%.

Regarding `CNC[C@H](O)c1cccc(O)c1` [Phenylephrine HCl], where the note is “read-out: % of Control (2)”, the activity at 2.2 µM is 253%, the activity at 6.7 µM stood at 266% and the activity at 20 µM amounted to 373%. For the same compound, under “read-out: % of Control (4)”, the activity at 2.2 µM came to 240%, the activity at 6.7 µM was found to be 232% and the activity at 20 µM came out at 232%. For the same compound, where the note is “read-out: % of Control (1)”, the activity at 6.7 µM was found to be 271%, the activity at 20 µM was determined as 353% and the activity at 2200 µM amounted to 338%. Where the note is “read-out: % of Control (3)”, the activity at 6.7 µM was 240%, the activity at 20 µM was found to be 248% and the activity at 2200 µM came to 221%.

`CCc1cnn2c(NCc3ccc[n+]([O-])c3)cc(N3CCCC[C@H]3CCO)nc12` [Dinaciclib]: where the note is “read-out: % of Control (2)”, the activity at 2.2 µM was 232%, the activity at 6.7 µM is 204% and the activity at 20 µM was determined as 246%. For the setting “read-out: % of Control (4)”, the activity at 2.2 µM came out at 179%, the activity at 6.7 µM stood at 129% and the activity at 20 µM amounted to 262%. In addition, where the note is “read-out: % of Control (1)”, the activity at 6.7 µM was found to be 180%, the activity at 20 µM was found to be 291% and the activity at 2200 µM amounted to 175%. Further, for the setting “read-out: % of Control (3)”, the activity at 6.7 µM stood at 149%, the activity at 20 µM came out at 60.7% and the activity at 2200 µM is 193%.

Consider `Cc1[nH]c(=O)c(C#N)cc1-c1ccncc1` [Milrinone], for which, for the setting “read-out: % of Control (2)”, the activity at 2.2 µM was 117%, the activity at 6.7 µM stood at 154% and the activity at 20 µM came to 205%. Under “read-out: % of Control (4)”, the activity at 2.2 µM was 170%, the activity at 6.7 µM came to 142% and the activity at 20 µM was found to be 185%. For the setting “read-out: % of Control (1)”, the activity at 6.7 µM stood at 236%, the activity at 20 µM stood at 168% and the activity at 2200 µM stood at 99%. Further, under “read-out: % of Control (3)”, the activity at 6.7 µM worked out at 116%, the activity at 20 µM was found to be 171% and the activity at 2200 µM is 126%.

As to `C[n+]1cc2c3c(ccc2c2ccc4cc5c(cc4c21)OCO5)OCO3` [Sanguinarine], the activity at 2.2 µM came out at 142% (read-out: % of Control (2)) and 121% (read-out: % of Control (4)). The activity at 6.7 µM is, setting by setting: (read-out: % of Control (1)) 218%; (read-out: % of Control (2)) 198%; (read-out: % of Control (3)) 128%; (read-out: % of Control (4)) 101%. In addition, the activity at 20 µM is, setting by setting: (read-out: % of Control (1)) 185%; (read-out: % of Control (2)) 155%; (read-out: % of Control (3)) 133%; (read-out: % of Control (4)) 160%. In addition, the activity at 2200 µM runs as follows: (read-out: % of Control (1)) 179%; (read-out: % of Control (3)) 71.3%.

On to `CC(C)NCC(O)c1cc(O)cc(O)c1` (stereo not drawn) [Metaproterenol Sulfate], for which, for the setting “read-out: % of Control (2)”, the activity at 2.2 µM was 298%, the activity at 6.7 µM was 412% and the activity at 20 µM amounted to 293%. Moreover, for the setting “read-out: % of Control (4)”, the activity at 2.2 µM is 305%, the activity at 6.7 µM came out at 283% and the activity at 20 µM was 274%. Further, for the setting “read-out: % of Control (1)”, the activity at 6.7 µM stood at 311%, the activity at 20 µM is 305% and the activity at 2200 µM came out at 327%. Besides, where the note is “read-out: % of Control (3)”, the activity at 6.7 µM was determined as 293%, the activity at 20 µM was 308% and the activity at 2200 µM stood at 291%.

On to `O=C(Nc1c[nH]nc1-c1nc2ccc(CN3CCOCC3)cc2[nH]1)NC1CC1` [AT9283], for which the activity at 2.2 µM (read-out: % of Control (2)) stood at 115% and the activity at 2.2 µM (read-out: % of Control (4)) was determined as 133%. Also, the activity at 6.7 µM by setting is: (read-out: % of Control (1)) 151%; (read-out: % of Control (2)) 152%; (read-out: % of Control (3)) 161%; (read-out: % of Control (4)) 177%. Also, the activity at 20 µM reads like this: (read-out: % of Control (1)) 132%; (read-out: % of Control (2)) 144%; (read-out: % of Control (3)) 202%; (read-out: % of Control (4)) 159%. The activity at 2200 µM by setting is: (read-out: % of Control (1)) 163%; (read-out: % of Control (3)) 142%.

For `C[C@@H]1CC(=O)NN=C1c1ccc(NN=C(C#N)C#N)cc1` [Levosimendan], under “read-out: % of Control (2)”, the activity at 2.2 µM came to 163%, the activity at 6.7 µM amounted to 189% and the activity at 20 µM was found to be 280%. Further, where the note is “read-out: % of Control (4)”, the activity at 2.2 µM was 236%, the activity at 6.7 µM came to 246% and the activity at 20 µM was found to be 340%. Further, under “read-out: % of Control (1)”, the activity at 6.7 µM came to 197%, the activity at 20 µM stood at 261% and the activity at 2200 µM turned out to be 215%. Under “read-out: % of Control (3)”, the activity at 6.7 µM stood at 211%, the activity at 20 µM stood at 247% and the activity at 2200 µM came to 189%.

As to `CC(C)C[C@H](NC(=O)CNC(=O)c1cc(Cl)ccc1Cl)B1OC(=O)C(CC(=O)O)(CC(=O)O)O1` [MLN9708], where the note is “read-out: % of Control (2)”, the activity at 2.2 µM came to 139%, the activity at 6.7 µM is 228% and the activity at 20 µM was found to be 173%. Further, where the note is “read-out: % of Control (4)”, the activity at 2.2 µM stood at 114%, the activity at 6.7 µM turned out to be 115% and the activity at 20 µM amounted to 90%. Moreover, where the note is “read-out: % of Control (1)”, the activity at 6.7 µM amounted to 198%, the activity at 20 µM amounted to 138% and the activity at 2200 µM is 251%. For the setting “read-out: % of Control (3)”, the activity at 6.7 µM came out at 176%, the activity at 20 µM worked out at 117% and the activity at 2200 µM is 205%.

Regarding `CO[C@H]1CC[C@@H](O[C@H]2C[C@H]([C@]3(C)CC[C@]4(C[C@H](O)[C@@H](C)[C@@H]([C@@H](C)/C=C(\C)C(=O)[C@H](C)C[C@H](C)C(=O)O)O4)O3)O[C@]3(O[C@@H]([C@H]4O[C@@](O)(CO)[C@H](C)C[C@@H]4C)C[C@@H]3C)[C@@H]2C)O[C@@H]1C` [Nanchangmycin], for the setting “Conc. 2.2 (unit uncertain)”, the “% of Control (1)” value is 259.29 % of Control, the “% of Control (2)” value is given as 209.65 % of Control, the “% of Control (3)” value is 192.42 % of Control and the “% of Control (4)” value is listed as 124.48 % of Control. Further, under “Conc. 6.7 (unit uncertain)”, the “% of Control (1)” value is recorded as 196.07 % of Control, the “% of Control (2)” value is reported as 104.94 % of Control, the “% of Control (3)” value is 147.69 % of Control and the “% of Control (4)” value is 106.09 % of Control. For the setting “Conc. 20 (unit uncertain)”, the “% of Control (1)” value was 147.14 % of Control, the “% of Control (2)” value is listed as 168.94 % of Control, the “% of Control (3)” value is recorded as 98.9 % of Control and the “% of Control (4)” value was 168.85 % of Control.

As for `CC(Oc1c(Cl)cccc1Cl)C1=NCCN1` (stereo not drawn) [Lofexidine HCl], the activity at 2.2 µM by setting is: (read-out: % of Control (2)) 115%; (read-out: % of Control (4)) 91.4%. For the same compound, the activity at 6.7 µM was found to be 122% (read-out: % of Control (1)), 176% (read-out: % of Control (2)), 180% (read-out: % of Control (3)) and 149% (read-out: % of Control (4)). For the same compound, the activity at 20 µM came to 205% (read-out: % of Control (1)), 200% (read-out: % of Control (2)), 148% (read-out: % of Control (3)) and 191% (read-out: % of Control (4)). For the same compound, the activity at 2200 µM stood at 104% (read-out: % of Control (1)) and 119% (read-out: % of Control (3)).

In the case of `CCOC(=O)C1=C(C)NC(C)=C(C(=O)OC)C1c1cccc(Cl)c1Cl` (stereo not drawn) [Felodipine], the activity at 2.2 µM was determined as 220% (read-out: % of Control (2)) and 206% (read-out: % of Control (4)). In addition, the activity at 6.7 µM by setting is: (read-out: % of Control (1)) 284%; (read-out: % of Control (2)) 241%; (read-out: % of Control (3)) 228%; (read-out: % of Control (4)) 256%. Besides, the activity at 20 µM reads like this: (read-out: % of Control (1)) 291%; (read-out: % of Control (2)) 274%; (read-out: % of Control (3)) 244%; (read-out: % of Control (4)) 245%. Also, the activity at 2200 µM reads like this: (read-out: % of Control (1)) 243%; (read-out: % of Control (3)) 203%.

These data come from patent US20220079993A1, “NON-NATURALLY OCCURRING THERMOGENIC ADIPOCYTES, METHODS OF MAKING, AND METHODS OF USE THEREOF” (University of Georgia Research Foundation, Inc., priority 2019, published 2022).
